According to ChEMBL document CHEMBL1201862, “PubChem BioAssay data set” (2004):
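Following 48 hours of exposure in 96-well plates, responses at five concentrations were used to interpolate endpoints linearly. GI50 is the concentration that inhibits growth by half.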 Active and inactive are the calls of the source. Rule as the data show it: active = GI50 up to about 1.1 µM and inactive = higher.

What was measured:
Experiment in all cases: NCI anticancer screen, dose series, 48 h
786-0 = tested on: 786-0
A498 = tested on: A498
A549 = tested on: A549
ACHN = tested on: ACHN
BT-549 = tested on: BT-549
CAKI-1 = tested on: CAKI-1
CCRF-CEM = tested on: CCRF-CEM
COLO 205 = tested on: COLO 205
EKVX = tested on: EKVX
HCC 2998 = tested on: HCC 2998
HCT-116 = tested on: HCT-116
HCT-15 = tested on: HCT-15
HOP-62 = tested on: HOP-62
HOP-92 = tested on: HOP-92
HT-29 = tested on: HT-29
Hs-578T = tested on: Hs-578T
IGROV-1 = tested on: IGROV-1
K562 = tested on: K562
KM12 = tested on: KM12
LOX IMVI = tested on: LOX IMVI
M14 = tested on: M14
MCF7 = tested on: MCF7
MDA-MB-231 = tested on: MDA-MB-231
MDA-MB-435 = tested on: MDA-MB-435
MDA-N = tested on: MDA-N
MOLT-4 = tested on: MOLT-4
Malme-3M = tested on: Malme-3M
NCI-H226 = tested on: NCI-H226
NCI-H460 = tested on: NCI-H460
NCI-H522 = tested on: NCI-H522
NCI/ADR-RES = tested on: NCI/ADR-RES
OVCAR-4 = tested on: OVCAR-4
OVCAR-5 = tested on: OVCAR-5
OVCAR-8 = tested on: OVCAR-8
PC-3 = tested on: PC-3
RPMI-8226 = tested on: RPMI-8226
RXF 393 = tested on: RXF 393
SF-268 = tested on: SF-268
SF-295 = tested on: SF-295
SF-539 = tested on: SF-539
SK-MEL-28 = tested on: SK-MEL-28
SK-MEL-2 = tested on: SK-MEL-2
SK-MEL-5 = tested on: SK-MEL-5
SK-OV-3 = tested on: SK-OV-3
SN12C = tested on: SN12C
SNB-75 = tested on: SNB-75
SW-620 = tested on: SW-620
TK-10 = tested on: TK-10
U-251 = tested on: U-251
UACC-257 = tested on: UACC-257
UACC-62 = tested on: UACC-62
DU-145 = tested on: DU-145
HL-60 = tested on: HL-60
NCI-H23 = tested on: NCI-H23
OVCAR-3 = tested on: OVCAR-3
SNB-19 = tested on: SNB-19
T47D = tested on: T47D
UO-31 = tested on: UO-31

SMILES: Cc1ccc(S(=O)(=O)Nn2c(S)c(C#N)c(-c3ccc([N+](=O)[O-])cc3)c(C#N)c2=O)cc1
- GI50 (786-0): 20 µM (inactive)
- GI50 (A498): 89.1 µM (inactive)
- GI50 (A549): 47.9 µM (inactive)
- GI50 (ACHN): 51.5 µM (inactive)
- GI50 (BT-549): 12.8 µM (inactive)
- GI50 (CAKI-1): > 100 µM (inactive)
- GI50 (CCRF-CEM): 23.2 µM (inactive)
- GI50 (COLO 205): 29.2 µM (inactive)
- GI50 (EKVX): 32 µM (inactive)
- GI50 (HCC 2998): 31.6 µM (inactive)
- GI50 (HCT-116): 16.9 µM (inactive)
- GI50 (HCT-15): 17.3 µM
- GI50 (HOP-62): 98.2 µM (inactive)
- GI50 (HOP-92): 32.1 µM (inactive)
- GI50 (HT-29): 32.5 µM (inactive)
- GI50 (Hs-578T): 32.4 µM (inactive)
- GI50 (IGROV-1): 19.4 µM (inactive)
- GI50 (K562): 21.2 µM (inactive)
- GI50 (KM12): 31.6 µM (inactive)
- GI50 (LOX IMVI): 14.8 µM (inactive)
- GI50 (M14): 35.1 µM (inactive)
- GI50 (MCF7): 25.6 µM (inactive)
- GI50 (MDA-MB-231): 17.7 µM (inactive)
- GI50 (MDA-MB-435): 23.2 µM (inactive)
- GI50 (MDA-N): 26.1 µM (inactive)
- GI50 (MOLT-4): 17.3 µM (inactive)
- GI50 (Malme-3M): 61.5 µM (inactive)
- GI50 (NCI-H226): 40.6 µM (inactive)
- GI50 (NCI-H460): 31 µM (inactive)
- GI50 (NCI-H522): 15.7 µM (inactive)
- GI50 (NCI/ADR-RES): 33 µM (inactive)
- GI50 (OVCAR-4): 24.7 µM (inactive)
- GI50 (OVCAR-5): 72.9 µM (inactive)
- GI50 (OVCAR-8): 36.6 µM (inactive)
- GI50 (PC-3): 27.2 µM (inactive)
- GI50 (RPMI-8226): 16.4 µM (inactive)
- GI50 (RXF 393): 39 µM (inactive)
- GI50 (SF-268): 30.7 µM (inactive)
- GI50 (SF-295): 49.4 µM (inactive)
- GI50 (SF-539): 16.7 µM (inactive)
- GI50 (SK-MEL-28): 32.6 µM (inactive)
- GI50 (SK-MEL-2): 23 µM (inactive)
- GI50 (SK-MEL-5): 12 µM (inactive)
- GI50 (SK-OV-3): 82 µM (inactive)
- GI50 (SN12C): 19.1 µM (inactive)
- GI50 (SNB-75): 56.5 µM (inactive)
- GI50 (SW-620): 19.2 µM (inactive)
- GI50 (TK-10): 65.3 µM (inactive)
- GI50 (U-251): 29 µM (inactive)
- GI50 (UACC-257): 40.8 µM (inactive)
- GI50 (UACC-62): 25.8 µM (inactive)

SMILES: FC(F)(F)c1ccc(Cc2nc3cc4ccccc4cc3[nH]2)cc1
- GI50 (786-0): 89.5 µM (inactive)
- GI50 (A498): > 100 µM (inactive)
- GI50 (A549): > 100 µM (inactive)
- GI50 (ACHN): 49 µM (inactive)
- GI50 (BT-549): > 100 µM (inactive)
- GI50 (CAKI-1): 73.3 µM (inactive)
- GI50 (CCRF-CEM): > 100 µM (inactive)
- GI50 (COLO 205): > 100 µM (inactive)
- GI50 (DU-145): > 100 µM (inactive)
- GI50 (EKVX): > 100 µM (inactive)
- GI50 (HCC 2998): > 100 µM (inactive)
- GI50 (HCT-116): > 100 µM (inactive)
- GI50 (HCT-15): > 100 µM
- GI50 (HL-60): 93.1 µM (inactive)
- GI50 (HOP-62): > 100 µM (inactive)
- GI50 (HOP-92): 2.11 µM (inactive)
- GI50 (HT-29): 91.8 µM (inactive)
- GI50 (Hs-578T): 95.7 µM (inactive)
- GI50 (IGROV-1): 16 µM (inactive)
- GI50 (K562): 32.1 µM (inactive)
- GI50 (KM12): > 100 µM (inactive)
- GI50 (LOX IMVI): 77.8 µM (inactive)
- GI50 (M14): > 100 µM (inactive)
- GI50 (MCF7): 92.3 µM (inactive)
- GI50 (MDA-MB-231): > 100 µM (inactive)
- GI50 (MDA-MB-435): > 100 µM (inactive)
- GI50 (Malme-3M): > 100 µM (inactive)
- GI50 (NCI-H226): > 100 µM (inactive)
- GI50 (NCI-H23): > 100 µM (inactive)
- GI50 (NCI-H460): > 100 µM (inactive)
- GI50 (NCI-H522): 26.7 µM (inactive)
- GI50 (NCI/ADR-RES): > 100 µM (inactive)
- GI50 (OVCAR-3): 57.4 µM (inactive)
- GI50 (OVCAR-4): 31.5 µM (inactive)
- GI50 (OVCAR-5): > 100 µM (inactive)
- GI50 (OVCAR-8): > 100 µM (inactive)
- GI50 (PC-3): > 100 µM (inactive)
- GI50 (RPMI-8226): 6.97 µM (inactive)
- GI50 (RXF 393): 51.6 µM (inactive)
- GI50 (SF-268): > 100 µM (inactive)
- GI50 (SF-295): > 100 µM (inactive)
- GI50 (SF-539): > 100 µM (inactive)
- GI50 (SK-MEL-28): > 100 µM (inactive)
- GI50 (SK-MEL-2): > 100 µM (inactive)
- GI50 (SK-MEL-5): 54.6 µM (inactive)
- GI50 (SN12C): > 100 µM (inactive)
- GI50 (SNB-19): 45.7 µM (inactive)
- GI50 (SNB-75): 3.78 µM (inactive)
- GI50 (SW-620): > 100 µM (inactive)
- GI50 (T47D): 39.9 µM (inactive)
- GI50 (TK-10): > 100 µM (inactive)
- GI50 (U-251): 71.3 µM (inactive)
- GI50 (UACC-257): > 100 µM (inactive)
- GI50 (UACC-62): > 100 µM (inactive)
- GI50 (UO-31): 58.5 µM (inactive)

SMILES: Cc1cc(S(=O)(=O)Nc2n[nH]c(Nc3ccccc3)n2)c(S)cc1Cl
- GI50 (786-0): > 10 µM (inactive)
- GI50 (A498): > 10 µM (inactive)
- GI50 (A549): > 10 µM (inactive)
- GI50 (ACHN): > 10 µM (inactive)
- GI50 (BT-549): > 10 µM (inactive)
- GI50 (CAKI-1): > 10 µM (inactive)
- GI50 (CCRF-CEM): > 10 µM (inactive)
- GI50 (COLO 205): > 10 µM (inactive)
- GI50 (DU-145): > 10 µM (inactive)
- GI50 (EKVX): > 10 µM (inactive)
- GI50 (HCC 2998): > 10 µM (inactive)
- GI50 (HCT-116): > 10 µM (inactive)
- GI50 (HCT-15): > 10 µM
- GI50 (HL-60): > 10 µM (inactive)
- GI50 (HOP-62): > 10 µM (inactive)
- GI50 (HT-29): > 10 µM (inactive)
- GI50 (Hs-578T): > 10 µM (inactive)
- GI50 (IGROV-1): > 10 µM (inactive)
- GI50 (K562): > 10 µM (inactive)
- GI50 (KM12): > 10 µM (inactive)
- GI50 (LOX IMVI): > 10 µM (inactive)
- GI50 (M14): > 10 µM (inactive)
- GI50 (MCF7): > 10 µM (inactive)
- GI50 (MDA-MB-231): > 10 µM (inactive)
- GI50 (MDA-MB-435): > 10 µM (inactive)
- GI50 (MOLT-4): > 10 µM (inactive)
- GI50 (Malme-3M): > 10 µM (inactive)
- GI50 (NCI-H226): > 10 µM (inactive)
- GI50 (NCI-H23): > 10 µM (inactive)
- GI50 (NCI-H460): > 10 µM (inactive)
- GI50 (NCI-H522): > 10 µM (inactive)
- GI50 (NCI/ADR-RES): > 10 µM (inactive)
- GI50 (OVCAR-3): > 10 µM (inactive)
- GI50 (OVCAR-4): > 10 µM (inactive)
- GI50 (OVCAR-5): > 10 µM (inactive)
- GI50 (OVCAR-8): > 10 µM (inactive)
- GI50 (PC-3): > 10 µM (inactive)
- GI50 (RPMI-8226): > 10 µM (inactive)
- GI50 (RXF 393): > 10 µM (inactive)
- GI50 (SF-268): > 10 µM (inactive)
- GI50 (SF-295): > 10 µM (inactive)
- GI50 (SF-539): > 10 µM (inactive)
- GI50 (SK-MEL-28): > 10 µM (inactive)
- GI50 (SK-MEL-2): > 10 µM (inactive)
- GI50 (SK-MEL-5): > 10 µM (inactive)
- GI50 (SK-OV-3): > 10 µM (inactive)
- GI50 (SN12C): > 10 µM (inactive)
- GI50 (SNB-19): > 10 µM (inactive)
- GI50 (SNB-75): > 10 µM (inactive)
- GI50 (SW-620): > 10 µM (inactive)
- GI50 (T47D): > 10 µM (inactive)
- GI50 (TK-10): > 10 µM (inactive)
- GI50 (U-251): > 10 µM (inactive)
- GI50 (UACC-257): > 10 µM (inactive)
- GI50 (UACC-62): > 10 µM (inactive)
- GI50 (UO-31): > 10 µM (inactive)
